Results from publication PMC5601071 (Frontiers in Pharmacology, 2017).
Residues, ends and D or L forms follow the SMILES beside them. *: point of attachment. 5FAM = O=C1OC2(c3ccc(O)cc3Oc3cc(O)ccc32)c2ccc(C(=O)*)cc21; Biotin = O=C1N[C@H]2[C@H](CS[C@H]2CCCCC(=O)*)N1

Test system: not listed separately
Test: In vitro degradation / half-life time in serum
Assay type: in vitro ADME, mouse
Details: spadin incubated with mouse serum; HPLC peaks identified by mass spectroscopy
Experimental: […] Incubations were stopped by direct acidification (5 μl of 2.5 M HCl), loaded in C-18 sepack cartridges, lyophilized, resuspended in 20% acetonitrile before loading onto HPLC for analysis of PE degradation/stability. Elutions of HPLC products were carried out by means of a 50-min linear gradient of acetonitrile from 20 to 70% at a flow rate of 1 ml/min. The amount of the intact PE for each incubation time was expressed as the percent of the initial amount of spadin.

| Structure (SMILES) | time of maximal appearance of degradation peak in serum [min] |
| --- | --- |
| CC[C@H](C)[C@H](NC(=O)[C@@H]1CCCN1C(=O)CNC(=O)[C@H](CO)NC(=O)[C@H](Cc1c[nH]c2ccccc12)NC(=O)[C@H](CCCNC(=N)N)NC(=O)[C@@H]1CCCN1C(=O)[C@@H](N)CC(C)C)C(=O)NCC(=O)N[C@H](C(=O)N[C@@H](CO)C(=O)N[C@@H](Cc1c[nH]c2ccccc12)C(=O)O)C(C)C [PE 14-25] (H-LPRWSGPIGVSW-OH) | 15 |
| CC[C@H](C)[C@H](NC(=O)[C@@H]1CCCN1C(=O)CNC(=O)[C@H](CO)NC(=O)[C@H](Cc1c[nH]c2ccccc12)NC(=O)[C@H](CCCNC(=N)N)NC(=O)[C@@H]1CCCN1C(=O)[C@H](CC(C)C)NC(=O)[C@@H]1CCCN1C(=O)[C@H](C)N)C(=O)NCC(=O)N[C@H](C(=O)N[C@@H](CO)C(=O)N[C@@H](Cc1c[nH]c2ccccc12)C(=O)NCC(=O)N[C@@H](CC(C)C)C(=O)O)C(C)C [PE 12-27] (H-APLPRWSGPIGVSWGL-OH) | 30 |

Target: T1, TREK-1 channel (hTREK-1/HEK cells) (Homo sapiens, UniProt O95069)
T1 construct: expressed in transfected cells
T1 sequence (O95069 1-426): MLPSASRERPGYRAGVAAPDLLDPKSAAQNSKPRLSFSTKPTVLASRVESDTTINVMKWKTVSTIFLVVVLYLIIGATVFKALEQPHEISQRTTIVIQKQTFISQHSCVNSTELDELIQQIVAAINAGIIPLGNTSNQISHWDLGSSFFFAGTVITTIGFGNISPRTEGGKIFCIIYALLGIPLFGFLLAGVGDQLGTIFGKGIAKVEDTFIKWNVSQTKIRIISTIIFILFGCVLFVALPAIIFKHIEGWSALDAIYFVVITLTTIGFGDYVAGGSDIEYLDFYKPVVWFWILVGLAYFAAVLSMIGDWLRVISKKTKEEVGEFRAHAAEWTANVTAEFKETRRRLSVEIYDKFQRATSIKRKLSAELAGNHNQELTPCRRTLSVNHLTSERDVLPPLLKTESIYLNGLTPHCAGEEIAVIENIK
Test: TREK-1 current inhibition, whole-cell patch-clamp on hTREK-1/HEK cell line
Assay type: cell-based
Details: HEK293, peptide 100 nM; TREK-1 first activated with 10 μM arachidonic acid (AA); current density at 0 mV; hTREK-1/HEK cells; mean ± SEM, n = cells; read-out: % of TREK-1 inhibition
Experimental: The human TREK-1/HEK cell line (Moha ou Maati et al., [2011]) and the native HEK293 cell line were maintained in Dulbecco's Modified Eagle's Medium (DMEM) supplemented with 10% (v/v) heat-inactivated fetal bovine serum, 1% (v/v) penicillin-streptomycin, 1% Glutamax. For the hTREK-1/HEK cells, 0.5 mg/ml G418 were added to the medium.
Cells were incubated in a humidified atmosphere containing 5% CO2. For electrophysiological measurements, cells were plated at a density of 20,000 cells per 35 mm dish.
Cells from the hTREK-1/HEK cell line were seeded at a density of 20,000 cells/35 mm dish. Electrophysiological recordings were performed 24–48 h after plating using the whole-cell configuration of patch-clamp technique. TREK-1 currents (ITREK−1) were recorded using RK400 patch-clamp amplifier (Axon Instrument, USA). They were low-pass filtered at 3 kHz and digitized at 10 kHz using a 12-bit analog-to-digital converter digidata (1322 series, Axon Instrument, USA). ITREK−1amplitudes were expressed as current densities [current amplitude (pA)/membrane capacitance (pF)]. The results were expressed as mean ± SEM (standard error of the mean).
Cells were continuously perfused using an external bath solution containing in mM: 150 NaCl, 5 KCl, 3 MgCl2, 1 CaCl2, and 10 HEPES. The bath solution was initially adjusted to pH 7.4 with NaOH. The intra-pipette solution contained in mM: 155 KCl, 3 MgCl2, 5 EGTA, and 10 HEPES adjusted to pH 7.2 with KOH. In order to measure ITREK−1, a cocktail of potassium channel blockers was added to the bath solution. This cocktail contained: 3 mM 4-AP (4-aminopyridine), 10 mM TEA (tetraethylammonium), 10 μM Glibenclamide, 100 nM Apamin, and 50 nM Charybdotoxin. Data acquisition was carried out using a computer (Dell Pentium) with pClamp software (Axon Instrument, USA). Whole-cell currents were generated by running a pulse or ramp protocol every 5 s from −100 to +60 mV with a holding potential maintained at −80 mV. To evaluate the inhibitory effect on TREK-1 channels of shortened spadin analogs compared with spadin, cells were first activated by 10 μM arachidonic acid (AA). Dose-response curves were realized to compare spadin-analog effects with spadin using Origin 8.6 (Northampton, MA, USA).
Patch-clamp recording data were analyzed using Clampfit (Molecular Devices, USA). I = f(V) curves were obtained from −100 to +60 mV ramp. Data were presented as mean ± SEM.

| Structure (SMILES) | inhibition at 0.1 µM [%] |
| --- | --- |
| CC(C)C[C@H](NC(=O)CNC(=O)[C@H](Cc1c[nH]c2ccccc12)NC(=O)[C@H](CO)NC(=O)[C@@H](NC(=O)CNC(=O)c1ccc2c(c1)C(=O)OC21c2ccc(O)cc2Oc2cc(O)ccc21)C(C)C)C(=O)N[C@@H](CCCNC(=N)N)C(=O)O [5'FAM-PE 22-28] (5FAM-GVSWGLR-OH) | 6.63 ± 7.07 |
| CC(C)C[C@H](NC(=O)CNC(=O)[C@H](Cc1c[nH]c2ccccc12)NC(=O)[C@H](CO)NC(=O)[C@@H](NC(=O)[C@H](C)N)C(C)C)C(=O)N[C@@H](CCCNC(=N)N)C(=O)O [G/A-PE 22-28] (H-AVSWGLR-OH) | 50.6 ± 7.93 |
| CC(C)C[C@H](NC(=O)CNC(=O)[C@H](Cc1c[nH]c2ccccc12)NC(=O)[C@H](CO)NC(=O)[C@@H](NC(=O)CNC(=O)CCCC[C@@H]1SC[C@@H]2NC(=O)N[C@@H]21)C(C)C)C(=O)N[C@@H](CCCNC(=N)N)C(=O)O [Biotinylated-PE 22-28] (Biotin-GVSWGLR-OH) | 53 ± 6.42 |
| CCOC(=O)[C@H](CCCNC(=N)N)NC(=O)[C@H](CC(C)C)NC(=O)CNC(=O)[C@H](Cc1c[nH]c2ccccc12)NC(=O)[C@H](CO)NC(=O)[C@@H](NC(=O)CN)C(C)C [PE 22-28-O-Ethyl] (H-GVSWGLR-OEt) | 41.4 ± 11.5 |
| CC(C)C[C@H](NC(=O)CNC(=O)[C@H](Cc1c[nH]c2ccccc12)NC(=O)[C@H](CO)NC(=O)[C@@H](NC(=O)[C@H](C)NC(=O)CCCC[C@@H]1SC[C@@H]2NC(=O)N[C@@H]21)C(C)C)C(=O)N[C@@H](CCCNC(=N)N)C(=O)O [Biotinylated G/A-PE 22-28] (Biotin-AVSWGLR-OH) | 46.1 ± 7.74 |
| CC[C@H](C)[C@H](NC(=O)[C@@H]1CCCN1C(=O)CNC(=O)[C@H](CO)NC(=O)[C@H](Cc1c[nH]c2ccccc12)NC(=O)[C@H](CCCNC(=N)N)NC(=O)[C@@H]1CCCN1C(=O)[C@@H](N)CC(C)C)C(=O)NCC(=O)N[C@H](C(=O)N[C@@H](CO)C(=O)N[C@@H](Cc1c[nH]c2ccccc12)C(=O)O)C(C)C [PE 14-25] (H-LPRWSGPIGVSW-OH) | -14.7 ± 10.6 |
| CC[C@H](C)[C@H](NC(=O)[C@@H]1CCCN1C(=O)CNC(=O)[C@H](CO)NC(=O)[C@H](Cc1c[nH]c2ccccc12)NC(=O)[C@H](CCCNC(=N)N)NC(=O)[C@@H]1CCCN1C(=O)[C@H](CC(C)C)NC(=O)[C@@H]1CCCN1C(=O)[C@H](C)N)C(=O)NCC(=O)N[C@H](C(=O)N[C@@H](CO)C(=O)N[C@@H](Cc1c[nH]c2ccccc12)C(=O)NCC(=O)N[C@@H](CC(C)C)C(=O)O)C(C)C [PE 12-27] (H-APLPRWSGPIGVSWGL-OH) | 28.4 ± 9.9 |
| CC(C)C[C@H](NC(=O)CNC(=O)[C@H](Cc1c[nH]c2ccccc12)NC(=O)[C@H](CO)NC(=O)[C@@H](NC(=O)CN)C(C)C)C(=O)N[C@@H](CCCNC(=N)N)C(=O)O [PE 22-28] (H-GVSWGLR-OH) | 55.5 ± 4.55 |
| CC[C@H](C)[C@H](NC(=O)[C@@H]1CCCN1)C(=O)NCC(=O)N[C@H](C(=O)N[C@@H](CO)C(=O)N[C@@H](Cc1c[nH]c2ccccc12)C(=O)NCC(=O)N[C@@H](CC(C)C)C(=O)N[C@@H](CCCNC(=N)N)C(=O)O)C(C)C [PI-PE 22-28] (H-PIGVSWGLR-OH) | 46.2 ± 7.57 |
| CC(C)[C@H](NC(=O)CN)C(=O)N[C@@H](CO)C(=O)N[C@@H](Cc1c[nH]c2ccccc12)C(=O)O [PE 22-25] (H-GVSW-OH) | 36 ± 17.5 |

Same assay, conditions: peptide 100 nM after 10 μM AA; n = 8, p = 0.09

| Structure (SMILES) | current density measured at 0 mV compared with AA activity alone (100%) [%] |
| --- | --- |
| CC[C@H](C)[C@H](NC(=O)[C@@H]1CCCN1C(=O)CNC(=O)[C@H](CO)NC(=O)[C@H](Cc1c[nH]c2ccccc12)NC(=O)[C@H](CCCNC(=N)N)NC(=O)[C@@H]1CCCN1C(=O)[C@@H](N)CC(C)C)C(=O)NCC(=O)N[C@H](C(=O)N[C@@H](CO)C(=O)N[C@@H](Cc1c[nH]c2ccccc12)C(=O)O)C(C)C [PE 14-25] (H-LPRWSGPIGVSW-OH) | 114.7 ± 10.6 |
